Values quoted from earlier work as cited in patent publication US20030104085A1, “Methods and compositions for treating back pain” (priority 2001, published 2003).

Tests used:
rats = conditions: subcutaneous and epidural administration; cited from earlier work
[1] = system: nerve endings in the skin; conditions: topical administration; cited from earlier work

## C=C(C)[C@]12C[C@@H](C)[C@@]34O[C@](Cc5ccccc5)(O[C@@H]1[C@@H]3C=C(COC(=O)Cc1ccc(O)c(OC)c1)C[C@]1(O)C(=O)C(C)=C[C@@H]41)O2 [RTX, resiniferatoxin]
rats
  thermal analgesia: produce thermal analgesia
  time without restoration of pain sensitivity: over 7 days
[1]
  sensitivity to chemical pain stimulation: long-lasting insensitivity to chemical pain stimulation
